Molecular target: Human TRPA1 (Homo sapiens, UniProt O75762)
Experiment: Assay 1: In vitro cellular testing of TRPA1 modulation (CHO-TREx, Fluo-3 calcium fluorescence, AITC agonist)
Format: cell-based
Set-up: expressed in transfected cells; host or cells: CHO-TREx cells (Invitrogen), vector pcDNA4/TO
Conditions: CHO-TREx cells expressing human TRPA1; Fluo-3 fluorescence (FLIPR/Tetra); agonist 15 μM allyl isothiocyanate (AITC); 30 minute antagonist incubation
How it was run: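 Antagonist potency is the 50% reduction of the AITC (15 μM) calcium response, Hill-fitted against no-antagonist and 10 μM ruthenium red controls. Fluo-3-loaded (4 μM) CHO-TREx cells with tetracycline-inducible human TRPA1 got compound in HEPES saline pH 7.4 for 30 min, usually from 10 μM in three-fold dilutions.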

Human TRPA1, sequence (O75762 whole entry): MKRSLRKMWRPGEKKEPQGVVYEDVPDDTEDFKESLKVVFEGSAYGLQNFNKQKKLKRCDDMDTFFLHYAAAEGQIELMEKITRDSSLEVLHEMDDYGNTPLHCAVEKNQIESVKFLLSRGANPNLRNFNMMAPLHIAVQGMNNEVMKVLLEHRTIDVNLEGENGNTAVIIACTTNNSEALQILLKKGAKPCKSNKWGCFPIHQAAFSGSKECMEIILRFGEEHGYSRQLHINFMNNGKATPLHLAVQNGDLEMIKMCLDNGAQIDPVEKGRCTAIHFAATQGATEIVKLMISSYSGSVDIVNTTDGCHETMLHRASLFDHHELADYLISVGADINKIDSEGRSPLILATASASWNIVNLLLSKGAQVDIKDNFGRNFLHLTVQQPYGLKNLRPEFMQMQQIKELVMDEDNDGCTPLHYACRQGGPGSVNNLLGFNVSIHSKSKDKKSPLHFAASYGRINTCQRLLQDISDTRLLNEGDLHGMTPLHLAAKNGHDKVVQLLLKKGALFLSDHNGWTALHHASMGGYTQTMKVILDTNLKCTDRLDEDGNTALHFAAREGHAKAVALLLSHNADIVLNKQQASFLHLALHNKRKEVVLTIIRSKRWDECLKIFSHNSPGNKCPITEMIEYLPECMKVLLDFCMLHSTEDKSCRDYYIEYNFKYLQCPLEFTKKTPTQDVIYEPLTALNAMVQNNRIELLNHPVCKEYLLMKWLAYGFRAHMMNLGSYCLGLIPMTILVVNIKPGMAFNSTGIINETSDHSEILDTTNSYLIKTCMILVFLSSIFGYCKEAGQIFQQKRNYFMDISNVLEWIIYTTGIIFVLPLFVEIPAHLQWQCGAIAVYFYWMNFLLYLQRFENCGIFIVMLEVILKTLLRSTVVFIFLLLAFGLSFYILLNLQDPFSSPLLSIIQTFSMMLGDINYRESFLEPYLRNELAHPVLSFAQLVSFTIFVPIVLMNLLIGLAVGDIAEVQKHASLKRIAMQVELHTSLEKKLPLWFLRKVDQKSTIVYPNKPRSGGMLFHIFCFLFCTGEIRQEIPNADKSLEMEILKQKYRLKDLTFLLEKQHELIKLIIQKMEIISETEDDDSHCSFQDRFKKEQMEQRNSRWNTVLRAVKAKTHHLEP

Compound	IC50 [nM]
O=C(NCc1cc(NCc2cccnc2)nc(-c2ccc(C(F)(F)F)cc2)c1)[C@@H]1CCCN1S(=O)(=O)c1ccc(Cl)s1 [Example 371, 1-[(5-Chlorothiophen-2-yl)sulfonyl]-N-({2-[(pyridin-3-ylmethyl)amino]-6-[4-(trifluoromethyl)phenyl]pyridin-4-yl}methyl)-L-prolinamide]	2060
CNc1cc(CNC(=O)[C@@H]2C=CCN2S(=O)(=O)c2ccc(F)cc2)cc(-c2ccc(C(F)(F)F)cc2)n1 [Example 372, (2S)-1-[(4-Fluorophenyl)sulfonyl]-N-({2-(methylamino)-6-[4-(trifluoromethyl)phenyl]pyridin-4-yl}methyl)-2,5-dihydro-1H-pyrrole-2-carboxamide]	1610
O=C(NCc1cc(NCc2ccccn2)nc(-c2ccc(C(F)(F)F)cc2)c1)[C@@H]1CC(F)(F)CN1S(=O)(=O)c1ccc(F)cc1 [Example 374, 4,4-Difluoro-1-[(4-fluorophenyl)sulfonyl]-N-({2-[(pyridin-2-ylmethyl)amino]-6-[4-(trifluoromethyl)phenyl]pyridin-4-yl}methyl)-L-prolinamide]	2090
O=C(NCc1cc(-c2ccc(C(F)(F)F)cc2)nc(N2CCN(Cc3ccccn3)CC2)c1)[C@@H]1CC(F)(F)CN1S(=O)(=O)c1ccc(Cl)s1 [Example 375, 1-[(5-Chlorothiophen-2-yl)sulfonyl]-4,4-difluoro-N-({2-[4-(pyridin-2-ylmethyl)piperazin-1-yl]-6-[4-(trifluoromethyl)phenyl]pyridin-4-yl}methyl)-L-prolinamide]	1940
O=C(NCc1cc(-c2ccc(C(F)(F)F)cc2)nc(N2CCN(Cc3ccccc3)CC2)c1)[C@@H]1CC(F)(F)CN1S(=O)(=O)c1ccc(Cl)s1 [Example 377, N-({2-(4-Benzylpiperazin-1-yl)-6-[4-(trifluoromethyl)phenyl]pyridin-4-yl}methyl)-1-[(5-chlorothiophen-2-yl)sulfonyl]-4,4-difluoro-L-prolinamide]	4710
O=C(NCc1cc(NCc2ccccn2)nc(-c2ccc(C(F)(F)F)cc2)c1)[C@@H]1CC(F)(F)CN1S(=O)(=O)c1ccc(Cl)s1 [Example 382, 1-[(5-Chlorothiophen-2-yl)sulfonyl]-4,4-difluoro-N-({2-[(pyridin-2-ylmethyl)amino]-6-[4-(trifluoromethyl)phenyl]pyridin-4-yl}methyl)-L-prolinamide]	5090
CNc1cc(CNC(=O)[C@@H]2CC(F)(F)CN2S(=O)(=O)c2ccc(Cl)s2)cc(-c2ccc(C(F)(F)F)cc2)n1 [Example 384, 1-[(5-Chlorothiophen-2-yl)sulfonyl]-4,4-difluoro-N-({2-(methylamino)-6-[4-(trifluoromethyl)phenyl]pyridin-4-yl}methyl)-L-prolinamide]	2220
O=C(NCc1cc(-c2ccc(C(F)(F)F)cc2)nc(N2CCN(Cc3ccccn3)CC2)c1)[C@@H]1CC(F)(F)CN1S(=O)(=O)c1ccc(F)cc1 [Example 387, 4,4-Difluoro-1-[(4-fluorophenyl)sulfonyl]-N-({2-[4-(pyridin-2-ylmethyl)piperazin-1-yl]-6-[4-(trifluoromethyl)phenyl]pyridin-4-yl}methyl)-L-prolinamide]	3050
O=C(NCc1cc(-c2ccc(C(F)(F)F)cc2)nc(N2CCN(Cc3ccccc3)CC2)c1)[C@@H]1CC(F)(F)CN1S(=O)(=O)c1ccc(F)cc1 [Example 388, N-({2-(4-Benzylpiperazin-1-yl)-6-[4-(trifluoromethyl)phenyl]pyridin-4-yl}methyl)-4,4-difluoro-1-[(4-fluorophenyl)sulfonyl]-L-prolinamide]	3520
O=C(NCc1cc(NCc2cccnc2)nc(-c2ccc(C(F)(F)F)cc2)c1)[C@@H]1CCCN1S(=O)(=O)c1ccc(F)cc1 [Example 395, 1-[(4-Fluorophenyl)sulfonyl]-N-({2-[(pyridin-3-ylmethyl)amino]-6-[4-(trifluoromethyl)phenyl]pyridin-4-yl}methyl)-L-prolinamide]	2980

The next compounds have a lower IC50 than those just listed; values first:

IC50 [nM]	Compound
115	CC(C)CN1CCN(c2cc(CNC(=O)[C@@H]3CCCN3S(=O)(=O)c3ccc(F)cc3)cc(-c3ccc(C(F)(F)F)cc3)n2)CC1 [Example 370, 1-[(4-Fluorophenyl)sulfonyl]-N-({2-[4-(2-methylpropyl)piperazin-1-yl]-6-[4-(trifluoromethyl)phenyl]pyridin-4-yl}methyl)-L-prolinamide]
43	O=C(NCc1cc(-c2ccc(C(F)(F)F)cc2)nc(N2CCN(Cc3ccccc3)CC2)c1)[C@@H]1CCCN1S(=O)(=O)c1ccc(F)cc1 [Example 373, N-({2-(4-Benzylpiperazin-1-yl)-6-[4-(trifluoromethyl)phenyl]pyridin-4-yl}methyl)-1-[(4-fluorophenyl)sulfonyl]-L-prolinamide]
241	CN(C)c1cc(CNC(=O)[C@@H]2CC(F)(F)CN2S(=O)(=O)c2ccc(Cl)s2)cc(-c2ccc(C(F)(F)F)cc2)n1 [Example 376, 1-[(5-Chlorothiophen-2-yl)sulfonyl]-N-({2-(dimethylamino)-6-[4-(trifluoromethyl)phenyl]pyridin-4-yl}methyl)-4,4-difluoro-L-prolinamide]
380	CNc1cc(CNC(=O)[C@@H]2C=CCN2S(=O)(=O)c2ccc(Cl)s2)cc(-c2ccc(C(F)(F)F)cc2)n1 [Example 379, (2S)-1-[(5-Chlorothiophen-2-yl)sulfonyl]-N-({2-(methylamino)-6-[4-(trifluoromethyl)phenyl]pyridin-4-yl}methyl)-2,5-dihydro-1H-pyrrole-2-carboxamide]
523	O=C(NCc1cc(NCc2ccccn2)nc(-c2ccc(C(F)(F)F)cc2)c1)[C@@H]1C=CCN1S(=O)(=O)c1ccc(F)cc1 [Example 380, (2S)-1-[(4-Fluorophenyl)sulfonyl]-N-({2-[(pyridin-2-ylmethyl)amino]-6-[4-(trifluoromethyl)phenyl]pyridin-4-yl}methyl)-2,5-dihydro-1H-pyrrole-2-carboxamide]
729	O=C(NCc1cc(-c2ccc(C(F)(F)F)cc2)nc(N2CCN(Cc3ccncc3)CC2)c1)[C@@H]1CC(F)(F)CN1S(=O)(=O)c1ccc(Cl)s1 [Example 381, 1-[(5-Chlorothiophen-2-yl)sulfonyl]-4,4-difluoro-N-({2-[4-(pyridin-4-ylmethyl)piperazin-1-yl]-6-[4-(trifluoromethyl)phenyl]pyridin-4-yl}methyl)-L-prolinamide]
488	CC(C)CN1CCN(c2cc(CNC(=O)[C@@H]3CC(F)(F)CN3S(=O)(=O)c3ccc(Cl)s3)cc(-c3ccc(C(F)(F)F)cc3)n2)CC1 [Example 383, 1-[(5-Chlorothiophen-2-yl)sulfonyl]-4,4-difluoro-N-({2-[4-(2-methylpropyl)piperazin-1-yl]-6-[4-(trifluoromethyl)phenyl]pyridin-4-yl}methyl)-L-prolinamide]
978	O=C(NCc1cc(NCc2ccncc2)nc(-c2ccc(C(F)(F)F)cc2)c1)[C@@H]1CCCN1S(=O)(=O)c1ccc(F)cc1 [Example 385, 1-[(4-Fluorophenyl)sulfonyl]-N-({2-[(pyridin-4-ylmethyl)amino]-6-[4-(trifluoromethyl)phenyl]pyridin-4-yl}methyl)-L-prolinamide]
311	CC(C)CN1CCN(c2cc(CNC(=O)[C@@H]3CC(F)(F)CN3S(=O)(=O)c3ccc(F)cc3)cc(-c3ccc(C(F)(F)F)cc3)n2)CC1 [Example 386, 4,4-Difluoro-1-[(4-fluorophenyl)sulfonyl]-N-({2-[4-(2-methylpropyl)piperazin-1-yl]-6-[4-(trifluoromethyl)phenyl]pyridin-4-yl}methyl)-L-prolinamide]
95	CC(C)CN1CCN(c2cc(CNC(=O)[C@@H]3C=CCN3S(=O)(=O)c3ccc(Cl)s3)cc(-c3ccc(C(F)(F)F)cc3)n2)CC1 [Example 389, (2S)-1-[(5-Chlorothiophen-2-yl)sulfonyl]-N-({2-[4-(2-methylpropyl)piperazin-1-yl]-6-[4-(trifluoromethyl)phenyl]pyridin-4-yl}methyl)-2,5-dihydro-1H-pyrrole-2-carboxamide]
382	CC(C)CN1CCN(c2cc(CNC(=O)[C@@H]3C=CCN3S(=O)(=O)c3ccc(F)cc3)cc(-c3ccc(C(F)(F)F)cc3)n2)CC1 [Example 390, (2S)-1-[(4-Fluorophenyl)sulfonyl]-N-({2-[4-(2-methylpropyl)piperazin-1-yl]-6-[4-(trifluoromethyl)phenyl]pyridin-4-yl}methyl)-2,5-dihydro-1H-pyrrole-2-carboxamide]
797	O=C(NCc1cc(NCc2ccncc2)nc(-c2ccc(C(F)(F)F)cc2)c1)[C@@H]1C=CCN1S(=O)(=O)c1ccc(Cl)s1 [Example 391, (2S)-1-[(5-Chlorothiophen-2-yl)sulfonyl]-N-({2-[(pyridin-4-ylmethyl)amino]-6-[4-(trifluoromethyl)phenyl]pyridin-4-yl}methyl)-2,5-dihydro-1H-pyrrole-2-carboxamide]
414	O=C(NCc1cc(NCc2ccccn2)nc(-c2ccc(C(F)(F)F)cc2)c1)[C@@H]1CCCN1S(=O)(=O)c1ccc(F)cc1 [Example 392, 1-[(4-Fluorophenyl)sulfonyl]-N-({2-[(pyridin-2-ylmethyl)amino]-6-[4-(trifluoromethyl)phenyl]pyridin-4-yl}methyl)-L-prolinamide]
461	CN(C)c1cc(CNC(=O)[C@@H]2CC(F)(F)CN2S(=O)(=O)c2ccc(F)cc2)cc(-c2ccc(C(F)(F)F)cc2)n1 [Example 393, N-({2-(Dimethylamino)-6-[4-(trifluoromethyl)phenyl]pyridin-4-yl}methyl)-4,4-difluoro-1-[(4-fluorophenyl)sulfonyl]-L-prolinamide]
598	O=C(NCc1cc(NCc2ccccc2)nc(-c2ccc(C(F)(F)F)cc2)c1)[C@@H]1CC(F)(F)CN1S(=O)(=O)c1ccc(F)cc1 [Example 394, N-({2-(Benzylamino)-6-[4-(trifluoromethyl)phenyl]pyridin-4-yl}methyl)-4,4-difluoro-1-[(4-fluorophenyl)sulfonyl]-L-prolinamide]

— US8614201B2 (Janssen Pharmaceutica NV, priority 2009, dated 2013)
